Results reported in patent US8501936B2 (priority 2009, dated 2013).

What was measured:
[1] = target: human JAK2 (Homo sapiens (Human), UniProt O60674); settings: read-out: JAK2 IC50
[2] = target: human FAK (Homo sapiens (Human), UniProt Q05397); settings: read-out: FAK IC50
Chain of human FAK (Q05397 whole entry): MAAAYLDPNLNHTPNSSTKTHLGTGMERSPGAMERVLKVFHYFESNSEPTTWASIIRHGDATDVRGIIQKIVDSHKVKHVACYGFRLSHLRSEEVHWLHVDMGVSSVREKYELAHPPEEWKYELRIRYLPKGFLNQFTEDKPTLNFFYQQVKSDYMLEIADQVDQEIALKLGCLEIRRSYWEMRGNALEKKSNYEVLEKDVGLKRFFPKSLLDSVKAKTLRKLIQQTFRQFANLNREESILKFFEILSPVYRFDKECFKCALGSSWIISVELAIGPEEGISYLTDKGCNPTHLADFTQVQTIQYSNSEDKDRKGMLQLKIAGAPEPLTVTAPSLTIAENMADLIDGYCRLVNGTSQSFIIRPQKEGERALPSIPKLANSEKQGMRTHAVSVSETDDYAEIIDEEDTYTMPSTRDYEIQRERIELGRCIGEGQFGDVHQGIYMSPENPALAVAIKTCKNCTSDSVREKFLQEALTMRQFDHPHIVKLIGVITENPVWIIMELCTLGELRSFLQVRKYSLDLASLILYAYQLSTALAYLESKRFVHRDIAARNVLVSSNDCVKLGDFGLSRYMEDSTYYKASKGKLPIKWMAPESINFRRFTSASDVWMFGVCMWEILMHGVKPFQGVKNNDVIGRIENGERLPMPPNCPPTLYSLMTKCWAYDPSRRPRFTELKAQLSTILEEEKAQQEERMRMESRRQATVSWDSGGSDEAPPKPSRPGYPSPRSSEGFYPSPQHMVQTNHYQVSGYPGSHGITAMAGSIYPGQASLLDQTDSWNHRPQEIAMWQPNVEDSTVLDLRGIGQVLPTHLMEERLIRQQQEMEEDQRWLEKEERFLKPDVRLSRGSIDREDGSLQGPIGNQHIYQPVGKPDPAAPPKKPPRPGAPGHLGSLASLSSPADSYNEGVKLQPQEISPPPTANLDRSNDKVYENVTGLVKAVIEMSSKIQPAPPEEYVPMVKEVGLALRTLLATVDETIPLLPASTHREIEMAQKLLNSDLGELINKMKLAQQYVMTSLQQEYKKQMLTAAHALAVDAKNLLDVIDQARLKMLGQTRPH

Chain of human JAK2 (O60674 815-1132): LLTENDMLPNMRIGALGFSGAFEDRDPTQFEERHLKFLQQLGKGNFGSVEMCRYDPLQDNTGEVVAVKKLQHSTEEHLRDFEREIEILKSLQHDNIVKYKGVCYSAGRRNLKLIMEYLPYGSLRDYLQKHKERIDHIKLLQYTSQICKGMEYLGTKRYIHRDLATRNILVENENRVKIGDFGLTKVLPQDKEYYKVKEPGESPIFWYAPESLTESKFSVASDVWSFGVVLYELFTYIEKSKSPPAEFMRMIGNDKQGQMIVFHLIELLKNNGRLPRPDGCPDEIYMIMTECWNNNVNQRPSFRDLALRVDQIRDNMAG

Structure (SMILES)	IC50 [1] [nM]	IC50 [2] [nM]
CN1CCN(c2cccc(Nc3nc4c(-c5ccc(P(C)(C)=O)cc5)cccn4n3)c2)C(=O)C1 [Example 207, 1-(3-{8-[4-(Dimethyl-phosphinoyl)-phenyl]-[1,2,4]triazolo[1,5-a]pyridin-2-ylamino}-phenyl)-4-methyl-piperazin-2-one]	10.5	10000
CN1CCN(c2ccc(Nc3nc4c(-c5ccc(N(C)S(C)(=O)=O)cc5)cccn4n3)cc2)CC1 [Example 62, N-Methyl-N-(4-{2-[4-(4-methyl-piperazin-1-yl)-phenylamino]-[1,2,4]triazolo[1,5-a]pyridin-8-yl}-phenyl)-methanesulfonamide]	0.6	999
COc1ccccc1CNc1cccn2nc(Nc3ccc(N4CCN(C)CC4)cc3)nc12 [Example 387, N(8)-(2-Methoxy-benzyl)-N(2)-[4-(4-methyl-piperazin-1-yl)-phenyl]-[1,2,4]triazolo[1,5-a]pyridine-2,8-diamine]	12.3	553
CN(C)C(=O)CN1CCc2ccc(Nc3nc4c(-c5cc(S(C)(=O)=O)ccc5OCC(F)F)cccn4n3)cc2CC1 [Example 373, 2-(7-{8-[2-(2,2-Difluoro-ethoxy)-5-methanesulfonyl-phenyl]-[1,2,4]triazolo[1,5-a]pyridin-2-ylamino}-1,2,4,5-tetrahydro-3-benzazepin-3-yl)-N,N-dimethyl-acetamide]	505	10000
CN(c1ccccc1CNc1cccn2nc(Nc3ccccc3)nc12)S(C)(=O)=O [Example 202, N-Methyl-N-{2-[(2-phenylamino-[1,2,4]triazolo[1,5-a]pyridin-8-ylamino)-methyl]-phenyl}-methanesulfonamide]	571	189
CN(c1ccccc1CNc1cccn2nc(Nc3ccc4cnccc4c3)nc12)S(C)(=O)=O [Example 201, N-(2-{[2-(Isoquinolin-6-ylamino)-[1,2,4]triazolo[1,5-a]pyridin-8-ylamino]-methyl}-phenyl)-N-methyl-methanesulfonamide]	116	167
COc1ccc(C(F)(F)F)cc1-c1cccn2nc(Nc3ccc(N4CCN(C)CC4)cc3)nc12 [Example 254, [8-(2-Methoxy-5-trifluoromethyl-phenyl)-[1,2,4]triazolo[1,5-a]pyridin-2-yl]-[4-(4-methyl-piperazine-1-yl)-phenyl]-amine]	31.3	1080
c1cncc(CNc2cccn3nc(Nc4ccc(OCCN5CCCC5)cc4)nc23)c1 [Example 154, N(8)-Pyridin-3-ylmethyl-N(2)-[4-(2-pyrrolidin-1-yl-ethoxy)-phenyl]-[1,2,4]triazolo[1,5-a]pyridine-2,8-diamine]	571	10000
CN1CCN(c2ccc(Nc3nc4cccc(-c5cccc(NS(C)(=O)=O)c5)n4n3)cc2)CC1 [Example 83, N-(3-{2-[4-(4-Methyl-piperazin-1-yl)-phenylamino]-[1,2,4]triazolo[1,5-a]pyridin-5-yl}-phenyl)-methanesulfonamide]	19	553
COc1ccccc1-c1cccn2nc(Nc3ccc4c(c3)CCN(CCS(C)(=O)=O)CC4)nc12 [Example 314, [3-(2-Methanesulfonyl-ethyl)-2,3,4,5-tetrahydro-1H-3-benzazepin-7-yl]-[8-(2-methoxy-phenyl)-[1,2,4]triazolo[1,5-a]pyridine-2-yl]-amine]	17.8	10000
COc1ccc(C(F)(F)F)cc1-c1cccn2nc(Nc3ccc4c(c3)CCN(CCS(C)(=O)=O)CC4)nc12 [Example 322, [3-(2-Methanesulfonyl-ethyl)-2,3,4,5-tetrahydro-1H-3-benzazepin-7-yl]-[8-(2-methoxy-5-trifluoromethyl-phenyl)-[1,2,4]triazolo[1,5-a]pyridine-2-yl]-amine]	12.7	572
COc1ccccc1-c1cccn2nc(Nc3cccc(N4CCN(C)CC4)c3)nc12 [Example 56, [8-(2-Methoxy-phenyl)-[1,2,4]triazolo[1,5-a]pyridin-2-yl]-[3-(4-methyl-piperazin-1-yl)-phenyl]-amine]	26.8	3000
COc1ccccc1CNc1cccn2nc(Nc3cccc(N4CCN(C)CC4)c3)nc12 [Example 388, N(8)-(2-Methoxy-benzyl)-N(2)-[3-(4-methyl-piperazin-1-yl)-phenyl]-[1,2,4]triazolo[1,5-a]pyridine-2,8-diamine]	46	951
CN1CCN(c2cccc(Nc3nc4c(-c5cnn(-c6ccc(F)cc6)c5)cccn4n3)c2)CC1 [Example 288, {8-[1-(4-Fluoro-phenyl)-1H-pyrazol-4-yl]-[1,2,4]triazolo[1,5-a]pyridine-2-yl}-[3-(4-methyl-piperazin-1-yl)-phenyl]-amine]	5.64	3000
CS(=O)(=O)c1ccc(-c2cccn3nc(Nc4ccc(OCCN5CCOCC5)cc4)nc23)cc1 [Example 26, [8-(4-Methanesulfonyl-phenyl)-[1,2,4]triazolo[1,5-a]pyridin-2-yl]-[4-(2-morpholin-4-yl-ethoxy)-phenyl]-amine]	1.3	585
COc1ccccc1-c1cccn2nc(Nc3ccc(N4CCOCC4)cc3)nc12 [Example 2, [8-(2-Methoxy-phenyl)-[1,2,4]triazolo[1,5-a]pyridin-2-yl]-(4-morpholin-4-yl-phenyl)-amine]	20	6500
CN(C)C(=O)CN1CCc2ccc(Nc3nc4c(-c5ccccc5OCC(F)F)cccn4n3)cc2CC1 [Example 368, 2-(7-{8-[2-(2,2-Difluoro-ethoxy)-phenyl]-[1,2,4]triazolo[1,5-a]pyridin-2-ylamino}-1,2,4,5-tetrahydro-3-benzazepin-3-yl)-N,N-dimethyl-acetamide]	197	2430
CCn1cc(Nc2nc3c(-c4ccc(S(C)(=O)=O)cc4)cccn3n2)cn1 [Example 209, (1-Ethyl-1H-pyrazol-4-yl)-[8-(4-methanesulfonyl-phenyl)-[1,2,4]triazolo[1,5-a]pyridin-2-yl]-amine]	1.88	10000
CN1CCN(c2cccc(Nc3nc4c(Nc5cccnc5N(C)S(C)(=O)=O)cccn4n3)c2)CC1 [Example 111, N-Methyl-N-(3-{2-[3-(4-methyl-piperazin-1-yl)-phenylamino]-[1,2,4]triazolo[1,5-a]pyridin-8-ylamino}-pyridin-2-yl)-methanesulfonamide]	60.3	2000
CS(=O)(=O)c1ccc(Oc2cccn3nc(Nc4cnn(CCN5CCCC5)c4)nc23)cc1 [Example 217, [8-(4-Methanesulfonyl-phenoxy)-[1,2,4]triazolo[1,5-a]pyridin-2-yl]-(1-(2-pyrrolidin-1-yl-ethyl)-1H-pyrazol-4-yl]-amine]	3000	1220
CN1CCN(c2cccc(Nc3nc4c(NCc5cccnc5)cccn4n3)c2)CC1 [Example 153, N(2)-[3-(4-Methyl-piperazin-1-yl)-phenyl]-N(8)-pyridin-3-ylmethyl-[1,2,4]triazolo[1,5-a]pyridine-2,8-diamine]	647	6500
CN1CCN(c2ccc(Nc3nc4c(NCc5cccnc5)cccn4n3)cc2)CC1 [Example 151, N(2)-[4-(4-Methyl-piperazin-1-yl)-phenyl]-N(8)-pyridin-3-ylmethyl-[1,2,4]triazolo[1,5-a]pyridine-2,8-diamine]	488	6500
CC(C)COc1ccc(C(F)(F)F)cc1-c1cccn2nc(Nc3ccc4c(c3)CCN(CC(=O)N(C)C)CC4)nc12 [Example 380]	3000	3000
COc1cccc(CNc2cccn3nc(Nc4cccc(N5CCN(C)CC5)c4)nc23)c1 [Example 392, N(8)-(3-Methoxy-benzyl)-N(2)-[3-(4-methyl-piperazin-1-yl)-phenyl]-[1,2,4]triazolo[1,5-a]pyridine-2,8-diamine]	3000	10000
CN1CCN(c2ccc(Nc3nc4c(NCc5cccc(S(C)(=O)=O)c5)cccn4n3)cc2)CC1 [Example 160, N(8)-(3-Methanesulfonyl-benzyl)-N(2)-[4-(4-methyl-piperazin-1-yl)-phenyl]-[1,2,4]triazolo[1,5-a]pyridine-2,8-diamine]	262	10000
CS(=O)(=O)c1ccc(-c2cccn3nc(Nc4cnn(CCN5CCCC5)c4)nc23)cc1 [Example 219, [8-(4-Methanesulfonyl-phenyl)-[1,2,4]triazolo[1,5-a]pyridin-2-yl]-(1-(2-pyrrolidin-1-yl-ethyl)-1H-pyrazol-4-yl]-amine]	13.9	10000
CN1CCN(c2ccc(Nc3nc4c(NCc5ccccc5N(C)S(C)(=O)=O)cccn4n3)cc2)CC1 [Example 147, N-Methyl-N-[2-({2-[4-(4-methyl-piperazin-1-yl)-phenylamino]-[1,2,4]triazolo[1,5-a]pyridin-8-ylamino}-methyl)-phenyl]-methanesulfonamide]	29.1	11.4
CN1CCN(c2ccc(Nc3nc4c(NCC5CCN(C(=O)OC(C)(C)C)C5)cccn4n3)cc2)CC1 (stereo not drawn) [Example 163, 3-({2-[4-(4-Methyl-piperazin-1-yl)-phenylamino]-[1,2,4]triazolo[1,5-a]pyridin-8-ylamino}-methyl)-pyrrolidine-1-carboxylic acid tert-butyl ester]	98	10000
CS(=O)(=O)c1ccc(OCC(F)F)c(-c2cccn3nc(Nc4ccc5c(c4)CCNCC5)nc23)c1 [Example 372, {8-[2-(2,2-Difluoro-ethoxy)-5-methanesulfonyl-phenyl]-[1,2,4]triazolo[1,5-a]pyridin-2-yl}-(2,3,4,5-tetrahydro-1H-3-benzazepin-7-yl)-amine]	600	10000
COc1ccc(C(F)(F)F)cc1-c1cccn2nc(Nc3ccc4c(c3)CCN(CC(=O)N(C)C)C4)nc12 [Example 338, 2-{6-[8-(2-Methoxy-5-trifluoromethyl-phenyl)-[1,2,4]-triazolo[1,5-a]pyridin-2-ylamino]-3,4-dihydro-1H-isoquinolin-2-yl}-N,N-dimethyl-acetamide]	41.4	1370
